The source made the active and inactive calls. No cut-off for these calls is given here.
Experiments:
Prostacyclin receptor [1] = molecular target: T1, Prostacyclin receptor (Homo sapiens, UniProt P43119); test: Intrinsic activity at human recombinant IP receptor expressed in CHO-K1 cells incubated for 1 hr by HTRF cAMP assay relative to 1 uM iloprost; assay type: functional, cell-based
Prostacyclin receptor [2] = molecular target: T1, Prostacyclin receptor; test: Agonist activity at human recombinant IP receptor expressed in CHO-K1 cells incubated for 1 hr by HTRF cAMP assay; assay type: functional, cell-based
[3] = molecular target: Prostacyclin receptor (Rattus norvegicus) (UniProt P43253); test: Intrinsic activity at rat recombinant IP receptor expressed in CHO-K1 cells incubated for 1 hr by HTRF cAMP assay relative to 1 uM iloprost; assay type: functional, cell-based
[4] = molecular target: T2, Prostaglandin D2 receptor (Homo sapiens, UniProt Q13258); test: Agonist activity at human recombinant DP1 receptor expressed in melanophores assessed as induction of pigment redistribution incubated for 90 mins
T2 sequence (Q13258 whole entry): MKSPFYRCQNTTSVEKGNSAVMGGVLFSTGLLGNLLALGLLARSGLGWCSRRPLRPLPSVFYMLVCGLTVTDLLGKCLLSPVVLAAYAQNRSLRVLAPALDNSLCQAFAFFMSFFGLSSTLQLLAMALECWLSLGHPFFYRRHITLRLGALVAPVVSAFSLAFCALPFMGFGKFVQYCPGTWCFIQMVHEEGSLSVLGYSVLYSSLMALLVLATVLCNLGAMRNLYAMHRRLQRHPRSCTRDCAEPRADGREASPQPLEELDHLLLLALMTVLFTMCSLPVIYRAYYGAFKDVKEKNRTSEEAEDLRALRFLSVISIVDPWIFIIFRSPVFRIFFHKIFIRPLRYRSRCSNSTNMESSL

Prostacyclin receptor [5] = molecular target: Prostacyclin receptor (Rattus norvegicus, UniProt P43253); test: Agonist activity at rat recombinant IP receptor expressed in CHO-K1 cells incubated for 1 hr by HTRF cAMP assay; assay type: functional, cell-based
Liver microsome [6] = test: Stability in rat liver microsomes; assay type: ADME
Liver microsome [7] = test: Stability in human liver microsomes; assay type: ADME
Homo sapiens = species on record: Homo sapiens; test: Selectivity index, ratio of EC50 for human recombinant DP1 receptor to EC50 for human recombinant IP receptor
[8] = Half life in sc dosed rat; assay type: ADME, organism-based; settings: in vivo
Rattus norvegicus [9] = test: Prevention of right ventricular weight increase in rat model of monocrotaline-induced pulmonary arterial hypertension administered subcutaneously twice daily for 21 days; assay type: functional, organism-based; settings: Heart right ventricle
Rattus norvegicus [10] = test: Prevention of right ventricular weight increase in rat model of monocrotaline-induced pulmonary arterial hypertension at 1 mg/kg, sc administered twice daily for 21 days relative to sham animal (reference value: 19 no unit); assay type: functional, Heart right ventricle; settings: route subcutaneous
Rattus norvegicus [11] = test: Prevention of right ventricular weight increase in rat model of monocrotaline-induced pulmonary arterial hypertension at 30 mg/kg, sc administered twice daily for 21 days relative to sham animal (reference value: 19 no unit); assay type: functional, Heart right ventricle
Rattus norvegicus [12] = test: Prevention of right ventricular weight increase in rat model of monocrotaline-induced pulmonary arterial hypertension at 10 mg/kg, sc administered twice daily for 21 days relative to sham animal (reference value: 19 no unit); assay type: functional, Heart right ventricle
[13] = molecular target: T2, Prostaglandin D2 receptor; test: Agonist activity at human recombinant DP1 receptor by melanophore assay
Rattus norvegicus [14] = test: Improvement in right ventricular systolic pressure in rat model of monocrotaline-induced pulmonary arterial hypertension at 10 mg/kg, sc administered twice daily for 21 days; assay type: functional, organism-based; set-up: dose 10 mg/kg; settings: Heart right ventricle
[15] = Half life in iv dosed rat; assay type: ADME, organism-based; settings: in vivo
[16] = Oral bioavailability in rat; assay type: ADME, organism-based; settings: in vivo

T1 sequence (P43119 whole entry): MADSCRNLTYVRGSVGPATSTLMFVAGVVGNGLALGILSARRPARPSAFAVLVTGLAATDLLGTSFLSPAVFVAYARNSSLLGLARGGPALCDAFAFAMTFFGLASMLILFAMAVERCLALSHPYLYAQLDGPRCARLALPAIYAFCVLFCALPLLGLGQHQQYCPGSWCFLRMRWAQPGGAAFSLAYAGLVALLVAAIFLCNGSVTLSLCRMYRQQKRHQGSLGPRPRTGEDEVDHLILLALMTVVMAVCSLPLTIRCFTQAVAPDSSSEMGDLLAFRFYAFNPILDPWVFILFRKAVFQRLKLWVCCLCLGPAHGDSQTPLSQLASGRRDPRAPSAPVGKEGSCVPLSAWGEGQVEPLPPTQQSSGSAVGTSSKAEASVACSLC
Prostacyclin receptor (Rattus norvegicus, UniProt P43253), sequence (P43253 whole entry): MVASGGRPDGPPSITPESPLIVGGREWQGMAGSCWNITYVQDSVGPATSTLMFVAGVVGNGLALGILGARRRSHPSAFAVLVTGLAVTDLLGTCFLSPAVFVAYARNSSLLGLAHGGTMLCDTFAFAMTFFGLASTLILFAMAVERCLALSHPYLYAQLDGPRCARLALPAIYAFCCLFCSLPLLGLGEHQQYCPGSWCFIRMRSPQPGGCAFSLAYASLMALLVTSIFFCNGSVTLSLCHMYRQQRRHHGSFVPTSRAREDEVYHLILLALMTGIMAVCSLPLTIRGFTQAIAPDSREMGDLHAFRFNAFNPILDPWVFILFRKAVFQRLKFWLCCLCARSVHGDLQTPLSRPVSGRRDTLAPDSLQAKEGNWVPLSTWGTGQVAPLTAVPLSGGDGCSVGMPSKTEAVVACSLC
Prostacyclin receptor (Rattus norvegicus), sequence (P43253 whole entry): as above

Row | SMILES | Intrinsic activity (Prostacyclin receptor [1]) [%] | EC50 (Prostacyclin receptor [2]) [nM] | Intrinsic activity [3] [%] | EC50 [4] [nM] | EC50 (Prostacyclin receptor [5]) [nM] | Stability (Liver microsome [6]) | Stability (Liver microsome [7]) | also measured
1 | O=C(O)COc1cccc2c1CCC(Cn1nc(-c3ccccc3)c(-c3ccccc3)cc1=O)C2 (racemic) | 60 | 969 | 70 | 21 | 2190 |  |  | 
2 | COc1ccc(-c2cc(=O)n(CC3CCc4c(cccc4OCC(=O)O)C3)nc2-c2ccccc2)cc1 (racemic) | 47 | 2670 |  |  | > 10000 | Unstable | Unstable | 
3 | COc1cccc(-c2cc(=O)n(CC3CCc4c(cccc4OCC(=O)O)C3)nc2-c2ccccc2)c1 (racemic) | 88 | 60 | 96 | 17 | 310 | Unstable | Unstable | 
4 | Cc1cccc(-c2cc(=O)n(CC3CCc4c(cccc4OCC(=O)O)C3)nc2-c2ccccc2)c1 (racemic) | 97 | 180 | 72 | 25 | 370 |  |  | 
5 | O=C(O)COc1cccc2c1CCC(Cn1nc(-c3ccccc3)c(-c3cccc(F)c3)cc1=O)C2 (racemic) | 63 | 380 | 97 | 44 | 900 |  |  | 
6 | O=C(O)COc1cccc2c1CCC(Cn1nc(-c3ccccc3)c(-c3cccc(Cl)c3)cc1=O)C2 (racemic) | 77 | 60 | 62 | 61 | 360 |  |  | 
7 | COc1cccc(-c2cc(=O)n(CC3CCc4c(cccc4OCC(=O)O)C3)nc2-c2ccccc2)c1F (racemic) | 97 | 37 | 85 | 6 | 350 | Unstable | Unstable | 
8 | COc1cccc(-c2nn(CC3CCc4c(cccc4OCC(=O)O)C3)c(=O)cc2-c2ccccc2)c1 (racemic) | 87 | 1720 |  |  | > 10000 | Unstable | Unstable | 
9 | O=C(O)COc1cccc2c1CCC(Cn1nc(-c3cccc(F)c3)c(-c3ccccc3)cc1=O)C2 (racemic) | 88 | 1060 | 99 |  | 2370 |  |  | 
10 | COc1ccc(-c2nn(CC3CCc4c(cccc4OCC(=O)O)C3)c(=O)cc2-c2ccccc2)cc1 (racemic) | 80 | 8.5 | 93 | 1.7 | 12.5 | Unstable | Unstable | 
11 | Cc1ccc(-c2nn(CC3CCc4c(cccc4OCC(=O)O)C3)c(=O)cc2-c2ccccc2)cc1 (racemic) | 67 | 24 | 99 |  | 120 |  |  | 
12 | O=C(O)COc1cccc2c1CCC(Cn1nc(-c3ccc(F)cc3)c(-c3ccccc3)cc1=O)C2 (racemic) | 89 | 114 | 93 |  | 1500 |  |  | 
13 | COc1ccc(-c2nn(CC3CCc4c(cccc4OCC(=O)O)C3)c(=O)cc2-c2ccccc2)c(F)c1 (racemic) | 78 | 20 | 76 | 31 | 112 | Unstable | Unstable | 
14 | COc1ccc(-c2nn(CC3CCc4c(cccc4OCC(=O)O)C3)c(=O)cc2-c2ccccc2)cc1F (racemic) | 80 | 10 | 75 | 3 | 51 | Unstable | Unstable | 
15 | COc1cccc(-c2cc(=O)n(CC3CCc4c(cccc4OCC(=O)O)C3)nc2-c2ccc(C)cc2)c1 (racemic) | 81 | 9.5 | 107 | 11 | 28 |  |  | 
16 | COc1cccc(-c2cc(=O)n(CC3CCc4c(cccc4OCC(=O)O)C3)nc2-c2ccc(F)cc2)c1 (racemic) | 91 | 62 | 102 | 24 | 620 |  |  | 

Row | SMILES | Intrinsic activity (Prostacyclin receptor [1]) [%] | EC50 (Prostacyclin receptor [2]) [nM] | Intrinsic activity [3] [%] | EC50 [4] [nM] | EC50 (Prostacyclin receptor [5]) [nM] | Stability (Liver microsome [6]) | Stability (Liver microsome [7]) | also measured
17 | O=C(O)COc1cccc2c1CCC(Cn1ncc(-c3ccccc3)c(-c3ccccc3)c1=O)C2 (racemic) | 75 | 100 | 88 | 180 | 260 |  |  | 
18 | COc1cccc(-c2cnn(CC3CCc4c(cccc4OCC(=O)O)C3)c(=O)c2-c2ccccc2)c1 (racemic) | 101 | 140 | 81 | 48 | 690 | Unstable | Unstable | 
19 | O=C(O)COc1cccc2c1CCC(Cn1ncc(-c3cccc(F)c3)c(-c3ccccc3)c1=O)C2 (racemic) | 82 | 60 | 103 | 88 | 410 |  |  | 
20 | O=C(O)COc1cccc2c1CCC(Cn1ncc(-c3cccc(Cl)c3)c(-c3ccccc3)c1=O)C2 (racemic) | 93 | 86 | 98 |  | 260 |  |  | 
21 | COc1ccc(-c2cnn(CC3CCc4c(cccc4OCC(=O)O)C3)c(=O)c2-c2ccccc2)cc1 (racemic) | 73 | 1060 |  |  | > 3000 | Unstable | Unstable | 
22 | O=C(O)COc1cccc2c1CCC(Cn1ncc(-c3ccccc3F)c(-c3ccccc3)c1=O)C2 (racemic) | 106 | 120 | 99 | 31 | 420 |  |  | 
23 | O=C(O)COc1cccc2c1CCC(Cn1ncc(-c3cccc(F)c3F)c(-c3ccccc3)c1=O)C2 (racemic) | 87 | 38 | 101 | 36 | 110 | Stable | Stable | Ratio EC50 (Homo sapiens): 10; half-life [8]: 2.5 h; Activity (Rattus norvegicus [9]): Dose-dependent effect; fold change (FC) (Rattus norvegicus [10]): 9; fold change (FC) (Rattus norvegicus [11]; route subcutaneous): 13; fold change (FC) (Rattus norvegicus [12]; route subcutaneous): 9; EC50 [13]: 400 nM; Activity (Rattus norvegicus [14]): Active
24 | COc1cccc(-c2cnn(CC3CCc4c(cccc4OCC(=O)O)C3)c(=O)c2-c2ccccc2)c1F (racemic) | 78 | 10 | 98 | 40 | 40 | Unstable | Unstable | 
25 | O=C(O)COc1cccc2c1CCC(Cn1ncc(-c3ccccc3)c(-c3ccccc3F)c1=O)C2 (racemic) | 91 | 140 | 116 |  | 370 |  |  | 
26 | O=C(O)COc1cccc2c1CCC(Cn1ncc(-c3ccccc3)c(-c3cccc(F)c3)c1=O)C2 (racemic) | 100 | 260 | 121 |  | 790 |  |  | 
27 | O=C(O)COc1cccc2c1CCC(Cn1ncc(-c3ccccc3)c(-c3ccc(F)cc3)c1=O)C2 (racemic) | 80 | 20 | 104 |  | 170 |  |  | 
28 | COc1ccc(-c2c(-c3ccccc3)cnn(CC3CCc4c(cccc4OCC(=O)O)C3)c2=O)cc1 (racemic) | 72 | 4 | 105 |  | 11 | Unstable | Unstable | 
29 | COc1ccc(-c2c(-c3ccccc3)cnn(CC3CCc4c(cccc4OCC(=O)O)C3)c2=O)cc1F (racemic) | 84 | 85 | 100 |  | 174 | Unstable | Unstable | 
30 | O=C(O)COc1cccc2c1CCC(Cn1ncc(-c3cccc(F)c3F)c(-c3ccc(F)cc3)c1=O)C2 (racemic) | 94 | 33 | 103 | 42 | 266 |  |  | 
31 | O=C(O)COc1cccc2c1CC[C@@H](Cn1ncc(-c3cccc(F)c3F)c(-c3ccc(F)cc3)c1=O)C2 (racemic) | 98 | 6 | 100 | 48 | 200 |  |  | half-life [15]: 2 h; bioavailability [16]: 76%; Activity (Rattus norvegicus [11]; Heart right ventricle): inactive; Activity (Rattus norvegicus [12]; Heart right ventricle): inactive; EC50 [13]: 140 nM

Reference: ChEMBL document CHEMBL3397017, “Discovery of a new series of potent prostacyclin receptor agonists with in vivo activity in rat” (Bioorg Med Chem Lett, 2015)
